From patent US20150105252A1, “SUBSTITUTED PYRAZOLES AS HERBICIDES” (E I DU PONT DE NEMOURS AND COMPANY, priority 2013, published 2015)

What was measured:
lambsquarters [1] = experiment: Test C preemergence; assay type: in vivo, Chenopodium album
In short: (§1)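 Postemergence values come from plants sprayed at the 1- to 4-leaf stage (2–18 cm) in peat moss–vermiculite medium; preemergence values from seeds treated in a loam–sand blend. Both evaluated visually against controls after 13–15 greenhouse days, scale 0–100.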

blackgrass = experiment: Test C postemergence; assay type: in vivo, Alopecurus myosuroides
In short: as §1

ryegrass, Italian = experiment: Test C postemergence; assay type: in vivo, Lolium multiflorum
In short: as §1

wheat = experiment: Test C postemergence; assay type: in vivo, Triticum aestivum
In short: as §1

galium = experiment: Test C postemergence; assay type: in vivo, Galium aparine
In short: as §1

corn = experiment: Test C postemergence; assay type: in vivo, Zea mays
In short: as §1

foxtail, giant = experiment: Test C postemergence; assay type: in vivo, Setaria faberii
In short: as §1

johnsongrass = experiment: Test C postemergence; assay type: in vivo, Sorghum halepense
In short: as §1

lambsquarters [2] = experiment: Test C postemergence; assay type: in vivo, Chenopodium album
In short: as §1

morningglory = experiment: Test C postemergence; assay type: in vivo, Ipomoea coccinea
In short: as §1

nutsedge, yellow = experiment: Test C postemergence; assay type: in vivo, Cyperus esculentus
In short: as §1

pigweed = experiment: Test C postemergence; assay type: in vivo, Amaranthus retroflexus
In short: as §1

soybean = experiment: Test C postemergence; assay type: in vivo, Glycine max
In short: as §1

oilseed rape = experiment: Test C postemergence; assay type: in vivo, Brassica napus
In short: as §1

waterhemp = experiment: Test C postemergence; assay type: in vivo, Amaranthus rudis
In short: as §1

kochia = experiment: Test C postemergence; assay type: in vivo, Kochia scoparia
In short: as §1

velvetleaf = experiment: Test C postemergence; assay type: in vivo, Abutilon theophrasti
In short: as §1

chickweed = experiment: Test C postemergence; assay type: in vivo, Stellaria media
In short: as §1

[3] = Postemergence, 31 g ai/ha, visually evaluated after 13 to 15 days
[4] = postemergence, 62 g ai/ha, scale 0 to 100
[5] = postemergence, 125 g ai/ha, scale 0 to 100, 0 no effect, 100 complete control

## CCc1cc(C(=O)NOC(C)C)nn1Cc1ccnc(C(F)(F)F)c1 [Compound 101]
Lambsquarters [1]; Preemergence, 16 g ai/ha, scale 0 to 100
  Plant response rating, Lambsquarters: 85
Lambsquarters [1]; preemergence, 31 g ai/ha, visual rating, scale 0 to 100 (0 no effect, 100 complete control), 13 to 15 days
  Lambsquarters plant response rating: 85
Lambsquarters [1]; preemergence, 62 g ai/ha, 13 to 15 days, scale 0 to 100, 0 = no effect, 100 = complete control
  Plant response rating, Lambsquarters: 85
Lambsquarters [1]; preemergence, 125 g ai/ha, scale 0 to 100, 0 is no effect, 100 is complete control
  Lambsquarters plant response rating: 95
blackgrass; Postemergence, 16 g ai/ha
  Plant response rating (scale of 0 to 100), Blackgrass: 5
blackgrass; [3]
  Plant response rating (scale of 0 to 100 where 0 is no effect and 100 is complete control), Blackgrass: 5
blackgrass; [4]
  Blackgrass plant response rating: 5
blackgrass; [5]
  Plant response rating, Blackgrass: 15
ryegrass, Italian; Postemergence, 16 g ai/ha
  Plant response rating (scale of 0 to 100), Ryegrass, Italian: 5
ryegrass, Italian; [3]
  Plant response rating (scale of 0 to 100 where 0 is no effect and 100 is complete control), Ryegrass, Italian: 5
ryegrass, Italian; [4]
  Ryegrass, Italian plant response rating: 5
ryegrass, Italian; [5]
  Plant response rating, Ryegrass, Italian: 10
wheat; Postemergence, 16 g ai/ha
  Plant response rating (scale of 0 to 100), Wheat: 0
wheat; [3]
  Plant response rating (scale of 0 to 100 where 0 is no effect and 100 is complete control), Wheat: 0
wheat; [4]
  Wheat plant response rating: 5
wheat; [5]
  Plant response rating, Wheat: 5
galium; Postemergence, 16 g ai/ha
  Plant response rating (scale of 0 to 100), Galium: 20
galium; [3]
  Plant response rating (scale of 0 to 100 where 0 is no effect and 100 is complete control), Galium: 35
galium; [4]
  Galium plant response rating: 50
galium; [5]
  Plant response rating, Galium: 55
corn; Postemergence, 16 g ai/ha
  Plant response rating (scale of 0 to 100), Corn: 5
corn; [3]
  Plant response rating (scale of 0 to 100 where 0 is no effect and 100 is complete control), Corn: 10
corn; [4]
  Corn plant response rating: 10
corn; [5]
  Plant response rating, Corn: 60
foxtail, giant; Postemergence, 16 g ai/ha
  Plant response rating (scale of 0 to 100), Foxtail, Giant: 10
foxtail, giant; [3]
  Plant response rating (scale of 0 to 100 where 0 is no effect and 100 is complete control), Foxtail, Giant: 10
foxtail, giant; [4]
  Foxtail, Giant plant response rating: 30
foxtail, giant; [5]
  Plant response rating, Foxtail, Giant: 65
johnsongrass; Postemergence, 16 g ai/ha
  Plant response rating (scale of 0 to 100), Johnsongrass: 0
johnsongrass; [3]
  Plant response rating (scale of 0 to 100 where 0 is no effect and 100 is complete control), Johnsongrass: 5
johnsongrass; [4]
  Johnsongrass plant response rating: 5
johnsongrass; [5]
  Plant response rating, Johnsongrass: 5
Lambsquarters [2]; Postemergence, 16 g ai/ha
  Plant response rating (scale of 0 to 100), Lambsquarters: 50
Lambsquarters [2]; [3]
  Plant response rating (scale of 0 to 100 where 0 is no effect and 100 is complete control), Lambsquarters: 50
Lambsquarters [2]; [4]
  Lambsquarters plant response rating: 65
Lambsquarters [2]; [5]
  Plant response rating, Lambsquarters: 75
morningglory; Postemergence, 16 g ai/ha
  Plant response rating (scale of 0 to 100), Morningglory: 60
morningglory; [3]
  Plant response rating (scale of 0 to 100 where 0 is no effect and 100 is complete control), Morningglory: 60
morningglory; [4]
  Morningglory plant response rating: 65
morningglory; [5]
  Plant response rating, Morningglory: 95
nutsedge, yellow; Postemergence, 16 g ai/ha
  Plant response rating (scale of 0 to 100), Nutsedge, Yellow: 5
nutsedge, yellow; [3]
  Plant response rating (scale of 0 to 100 where 0 is no effect and 100 is complete control), Nutsedge, Yellow: 5
nutsedge, yellow; [4]
  Nutsedge, Yellow plant response rating: 5
nutsedge, yellow; [5]
  Plant response rating, Nutsedge, Yellow: 40
pigweed; Postemergence, 16 g ai/ha
  Plant response rating (scale of 0 to 100), Pigweed: 20
pigweed; [3]
  Plant response rating (scale of 0 to 100 where 0 is no effect and 100 is complete control), Pigweed: 35
pigweed; [4]
  Pigweed plant response rating: 45
pigweed; [5]
  Plant response rating, Pigweed: 75
soybean; Postemergence, 16 g ai/ha
  Plant response rating (scale of 0 to 100), Soybean: 15
soybean; [3]
  Plant response rating (scale of 0 to 100 where 0 is no effect and 100 is complete control), Soybean: 20
soybean; [4]
  Soybean plant response rating: 25
soybean; [5]
  Plant response rating, Soybean: 40
Oilseed rape; Postemergence, 16 g ai/ha
  Plant response rating (scale of 0 to 100), Oilseed Rape: 5
Oilseed rape; [3]
  Plant response rating (scale of 0 to 100 where 0 is no effect and 100 is complete control), Oilseed Rape: 5
Oilseed rape; [4]
  Oilseed Rape plant response rating: 5
Oilseed rape; [5]
  Plant response rating, Oilseed Rape: 5
waterhemp; Postemergence, 16 g ai/ha
  Plant response rating (scale of 0 to 100), Waterhemp: 10
waterhemp; [3]
  Plant response rating (scale of 0 to 100 where 0 is no effect and 100 is complete control), Waterhemp: 30
waterhemp; [4]
  Waterhemp plant response rating: 35
waterhemp; [5]
  Plant response rating, Waterhemp: 75
kochia; Postemergence, 16 g ai/ha
  Plant response rating (scale of 0 to 100), Kochia: 40
kochia; [3]
  Plant response rating (scale of 0 to 100 where 0 is no effect and 100 is complete control), Kochia: 60
kochia; [4]
  Kochia plant response rating: 65
kochia; [5]
  Plant response rating, Kochia: 65
velvetleaf; Postemergence, 16 g ai/ha
  Plant response rating (scale of 0 to 100), Velvetleaf: 10
velvetleaf; [3]
  Plant response rating (scale of 0 to 100 where 0 is no effect and 100 is complete control), Velvetleaf: 15
velvetleaf; [4]
  Velvetleaf plant response rating: 25
velvetleaf; [5]
  Plant response rating, Velvetleaf: 30
chickweed; Postemergence, 16 g ai/ha
  Plant response rating (scale of 0 to 100), Chickweed: 45
chickweed; [3]
  Plant response rating (scale of 0 to 100 where 0 is no effect and 100 is complete control), Chickweed: 50
chickweed; [4]
  Chickweed plant response rating: 50
chickweed; [5]
  Plant response rating, Chickweed: 50
